This test deals with neurosphere subcultures. The test is described as follows: Exposure of neurosphere subcultures to dibutyryl cAMP. Type of test: cell-based. The note with it: media containing 2.5 mM dibutyryl cAMP.

The record followed here is patent US9090874B2, “Olfactory epithelial-derived stem cells and methods of use therefor” (University of Louisville Research Foundation, Inc., priority 2008, dated 2015).

Take `CCCC(=O)Nc1ncnc2c1ncn2[C@@H]1O[C@@H]2COP(=O)(O)O[C@H]2[C@H]1OC(=O)CCC` [dibutyryl cAMP]: the “levels of α-internexin” value is “increases” and the mitotic activity entry was “drastically decreases”.
